PubChem BioAssay AID1963838 (Molecular Pharmacology Branch, DTP, NCI, 2024)

Test system: 855422-203-R-J1-PDC complex spheroid viability
Test: Anticancer human tumor 855422-203-R-J1-PDC patient-derived bladder carcinoma cell line growth inhibition [POLQ]
Settings: for IC50: curve of first compound; for viability, T/C: stronger effect = lower value
Outline: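 Three-cell-type spheroids modelling solid tumor plus stroma served as the readout system; POL inhibitors were tested individually and in combination, concentration ranges set by clinical Cmax where known.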

[1] = second compound 0.0316 µM, first compound 0.0316 µM
[2] = second compound 0.0316 µM, first compound 0.1 µM
[3] = second compound 0.0316 µM, first compound 0.316 µM
[4] = second compound 0.0316 µM, first compound 1 µM
[5] = second compound 0.1 µM, first compound 0.0316 µM
[6] = second compound 0.1 µM, first compound 0.1 µM
[7] = second compound 0.1 µM, first compound 0.316 µM
[8] = second compound 0.1 µM, first compound 1 µM
[9] = second compound 0.316 µM, first compound 0.0316 µM
[10] = second compound 0.316 µM, first compound 0.1 µM
[11] = second compound 0.316 µM, first compound 0.316 µM
[12] = second compound 0.316 µM, first compound 1 µM
[13] = second compound 1 µM, first compound 0.0316 µM
[14] = second compound 1 µM, first compound 0.1 µM
[15] = second compound 1 µM, first compound 0.316 µM
[16] = second compound 1 µM, first compound 1 µM
[17] = second compound 3.16 µM, first compound 0.0316 µM
[18] = second compound 3.16 µM, first compound 0.1 µM
[19] = second compound 3.16 µM, first compound 0.316 µM
[20] = second compound 3.16 µM, first compound 1 µM
[21] = second compound 10 µM, first compound 0.0316 µM
[22] = second compound 10 µM, first compound 0.1 µM
[23] = second compound 10 µM, first compound 0.316 µM
[24] = second compound 10 µM, first compound 1 µM
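Also: spheroids exposed to compounds for seven days before readout.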

## COc1cccc(OCCCN)c1-c1cc(Nc2cnc(C#N)cn2)n[nH]1 + Cc1cccc(N(C)C(=O)C2C(O)CCN2c2nc(C)cc(C(F)(F)F)c2C#N)c1
Second compound 0.0316 µM
  IC50: 26.3 nM
Second compound 0.1 µM
  IC50: 23.9 nM
Second compound 0.316 µM
  IC50: 25.6 nM
Second compound 1 µM
  IC50: 24.7 nM
Second compound 3.16 µM
  IC50: 23.7 nM
Second compound 10 µM
  IC50: 21.7 nM
Second compound 0.0316 µM, first compound 0.00316 µM
  viability, T/C: 122%
Second compound 0.0316 µM, first compound 0.01 µM
  viability, T/C: 162%
[1]
  viability, T/C: 32.3%
[2]
  viability, T/C: 11.9%
[3]
  viability, T/C: 8.13%
[4]
  viability, T/C: 5.03%
Second compound 0.1 µM, first compound 0.00316 µM
  viability, T/C: 98.7%
Second compound 0.1 µM, first compound 0.01 µM
  viability, T/C: 149%
[5]
  viability, T/C: 26.4%
[6]
  viability, T/C: 8.17%
[7]
  viability, T/C: 7.52%
[8]
  viability, T/C: 6.18%
Second compound 0.316 µM, first compound 0.00316 µM
  viability, T/C: 99.1%
Second compound 0.316 µM, first compound 0.01 µM
  viability, T/C: 144%
[9]
  viability, T/C: 34.1%
[10]
  viability, T/C: 13.6%
[11]
  viability, T/C: 7.31%
[12]
  viability, T/C: 6.21%
Second compound 1 µM, first compound 0.00316 µM
  viability, T/C: 97.4%
Second compound 1 µM, first compound 0.01 µM
  viability, T/C: 133%
[13]
  viability, T/C: 32.1%
[14]
  viability, T/C: 9.07%
[15]
  viability, T/C: 8.72%
[16]
  viability, T/C: 8.98%
Second compound 3.16 µM, first compound 0.00316 µM
  viability, T/C: 87.8%
Second compound 3.16 µM, first compound 0.01 µM
  viability, T/C: 183%
[17]
  viability, T/C: 21.4%
[18]
  viability, T/C: 14.6%
[19]
  viability, T/C: 7.43%
[20]
  viability, T/C: 5.57%
Second compound 10 µM, first compound 0.00316 µM
  viability, T/C: 137%
Second compound 10 µM, first compound 0.01 µM
  viability, T/C: 94.1%
[21]
  viability, T/C: 28.3%
[22]
  viability, T/C: 11.2%
[23]
  viability, T/C: 9.5%
[24]
  viability, T/C: 7.47%

## Nc1ccn(C2OC(CO)C(O)C2(F)F)c(=O)n1 (centres undefined) + Cc1cccc(N(C)C(=O)C2C(O)CCN2c2nc(C)cc(C(F)(F)F)c2C#N)c1
Second compound 0.0316 µM
  IC50: 78.9 nM
Second compound 0.1 µM
  IC50: 101 nM
Second compound 0.316 µM
  IC50: 76.9 nM
Second compound 1 µM
  IC50: 85.7 nM
Second compound 3.16 µM
  IC50: 77.1 nM
Second compound 10 µM
  IC50: 69.8 nM
[1]
  viability, T/C: 84.7%
[2]
  viability, T/C: 41%
[3]
  viability, T/C: 12.6%
[4]
  viability, T/C: 12.4%
Second compound 0.0316 µM, first compound 3.16 µM
  viability, T/C: 8.52%
Second compound 0.0316 µM, first compound 10 µM
  viability, T/C: 7.11%
[5]
  viability, T/C: 86.4%
[6]
  viability, T/C: 50.5%
[7]
  viability, T/C: 13.6%
[8]
  viability, T/C: 9.98%
Second compound 0.1 µM, first compound 3.16 µM
  viability, T/C: 8.34%
Second compound 0.1 µM, first compound 10 µM
  viability, T/C: 6.1%
[9]
  viability, T/C: 81.7%
[10]
  viability, T/C: 40.7%
[11]
  viability, T/C: 11.9%
[12]
  viability, T/C: 10.9%
Second compound 0.316 µM, first compound 3.16 µM
  viability, T/C: 8.07%
Second compound 0.316 µM, first compound 10 µM
  viability, T/C: 5.67%
[13]
  viability, T/C: 83.7%
[14]
  viability, T/C: 44.8%
[15]
  viability, T/C: 12%
[16]
  viability, T/C: 11.7%
Second compound 1 µM, first compound 3.16 µM
  viability, T/C: 8.68%
Second compound 1 µM, first compound 10 µM
  viability, T/C: 6.87%
[17]
  viability, T/C: 86.5%
[18]
  viability, T/C: 39.4%
[19]
  viability, T/C: 14.8%
[20]
  viability, T/C: 10.2%
Second compound 3.16 µM, first compound 3.16 µM
  viability, T/C: 10.4%
Second compound 3.16 µM, first compound 10 µM
  viability, T/C: 6.57%
[21]
  viability, T/C: 84.5%
[22]
  viability, T/C: 34.4%
[23]
  viability, T/C: 13.3%
[24]
  viability, T/C: 12.7%
Second compound 10 µM, first compound 3.16 µM
  viability, T/C: 8.82%
Second compound 10 µM, first compound 10 µM
  viability, T/C: 8.17%
